Laboratory results taken from PubChem BioAssay AID220 (DTP/NCI, 2004).
Where “and” joins values, the source holds several entries; their conditions need not be identical. Equal entries are not always repeated. Records with an inconclusive call do not appear.

Test system: CD8F1 mice, subcutaneous mammary adenocarcinoma, T/C%
Experiment: NCI In Vivo Anticancer Drug Screen. Data for tumor model Mammary Adenocarcinoma CD8F1 (subcutaneous) in CD8F1
Details: higher = larger tumour
Procedure, shortened: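 Antitumor activity is assessed in transplantable-tumor mice by comparing the treated group with a vehicle-treated control group. Survival or tumor size serves as the measure, reported as T divided by C.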

[1] = endpoint: median tumor weight (est.), dose: 12.5 mg/kg/injection, schedule: Q07DX005 (ip), vehicle: Klucel (hydroxypropylcellulose) (HPC)
[2] = endpoint: median tumor weight (est.), dose: 25.0 mg/kg/injection, schedule: Q07DX005 (ip), vehicle: Klucel (hydroxypropylcellulose) (HPC)
[3] = endpoint: median tumor weight (est.), dose: 50.0 mg/kg/injection, schedule: Q07DX005 (ip), vehicle: Klucel (hydroxypropylcellulose) (HPC)
[4] = endpoint: median tumor weight (est.), dose: 200.0 mg/kg/injection, schedule: Q07DX005 (ip), vehicle: Klucel (hydroxypropylcellulose) (HPC)
[5] = endpoint: median tumor weight (est.), dose: 400.0 mg/kg/injection, schedule: Q07DX005 (ip), vehicle: Klucel (hydroxypropylcellulose) (HPC)
[6] = endpoint: median tumor weight (est.), dose: 12.5 mg/kg/injection, schedule: Q07DX005 (ip), vehicle: saline with Tween-80
[7] = endpoint: median tumor weight change, dose: 125.0 mg/kg/injection, schedule: Q01DX001 (ip), vehicle: saline

Structure (SMILES): CC1(C)OCC(CO)(Nc2nc(N3CC3)nc(N3CC3)n2)CO1
- T/C (endpoint: median tumor weight (est.), dose: 1.25 mg/kg/injection, schedule: Q07DX005 (ip), vehicle: saline): 41 % of control
- T/C (endpoint: median tumor weight (est.), dose: 2.5 mg/kg/injection, schedule: Q07DX005 (ip), vehicle: saline): 36 % of control
- T/C (endpoint: median tumor weight (est.), dose: 5.0 mg/kg/injection, schedule: Q07DX005 (ip), vehicle: saline): 18 % of control
- T/C (endpoint: median tumor weight (est.), dose: 10.0 mg/kg/injection, schedule: Q07DX005 (ip), vehicle: saline): 6 % of control

Structure (SMILES): CCN(CC)CCN1C(=O)C2C3C=CC(C2C1=O)C1C2C(=O)N(CCN(CC)CC)C(=O)C2C31 (configuration not stated)
- T/C (endpoint: median tumor weight change, dose: 15.62 mg/kg/injection, schedule: Q01DX001 (ip), vehicle: water): 106 % of control
- T/C (endpoint: median tumor weight change, dose: 31.25 mg/kg/injection, schedule: Q01DX001 (ip), vehicle: water): 111 % of control
- T/C (endpoint: median tumor weight change, dose: 62.5 mg/kg/injection, schedule: Q01DX001 (ip), vehicle: water): 88 % of control
- T/C (endpoint: median tumor weight change, dose: 125.0 mg/kg/injection, schedule: Q01DX001 (ip), vehicle: water): 92 % of control

Structure (SMILES): Nc1nnc[se]1
- T/C (endpoint: median tumor weight change, dose: 15.6 mg/kg/injection, schedule: Q01DX001 (ip), vehicle: saline with Tween-80): 80 % of control
- T/C (endpoint: median tumor weight change, dose: 31.25 mg/kg/injection, schedule: Q01DX001 (ip), vehicle: saline with Tween-80): 123 % of control
- T/C (endpoint: median tumor weight change, dose: 62.5 mg/kg/injection, schedule: Q01DX001 (ip), vehicle: saline with Tween-80): 84 % of control
- T/C (endpoint: median tumor weight change, dose: 125.0 mg/kg/injection, schedule: Q01DX001 (ip), vehicle: saline with Tween-80): 94 % of control
- T/C (endpoint: median tumor weight change, dose: 250.0 mg/kg/injection, schedule: Q01DX001 (ip), vehicle: saline with Tween-80): 50 % of control
- T/C (endpoint: median tumor weight change, dose: 500.0 mg/kg/injection, schedule: Q01DX001 (ip), vehicle: saline with Tween-80): 38 % of control

Structure (SMILES): CC(CN1CC(=O)NC(=O)C1)N1CC(=O)NC(=O)C1 (configuration not stated)
- T/C [1]: 59 % of control
- T/C [2]: 84 % of control
- T/C [3]: 41 % of control
- T/C [4]: 21 % of control and 29 % of control
- T/C [5]: 5 % of control and 11 % of control

Structure (SMILES): O=P(O)(NCCCl)NCCCl
- T/C (endpoint: median tumor weight change, dose: 25.0 mg/kg/injection, schedule: Q01DX001 (ip), vehicle: saline): 49 % of control
- T/C (endpoint: median tumor weight change, dose: 50.0 mg/kg/injection, schedule: Q01DX001 (ip), vehicle: saline): 97 % of control
- T/C (endpoint: median tumor weight change, dose: 50.0 mg/kg/injection, schedule: Q01DX001 (ip), vehicle: suspension in saline): -39 % of control
- T/C (endpoint: median tumor weight change, dose: 100.0 mg/kg/injection, schedule: Q01DX001 (ip), vehicle: saline): 41 % of control
- T/C (endpoint: median tumor weight change, dose: 200.0 mg/kg/injection, schedule: Q01DX001 (ip), vehicle: saline): -56 % of control

Structure (SMILES): C1CN2CCC1CC2
- T/C (endpoint: median tumor weight (est.), dose: 6.25 mg/kg/injection, schedule: Q07DX005 (ip), vehicle: saline with Tween-80): 111 % of control
- T/C [6]: 77 % of control

Structure (SMILES): OCC1OC(n2cnc3c(NO)ncnc32)C(O)C1O (configuration not stated)
- T/C [1]: 104 % of control
- T/C [2]: 66 % of control
- T/C [3]: 85 % of control
- T/C (endpoint: median tumor weight (est.), dose: 100.0 mg/kg/injection, schedule: Q07DX005 (ip), vehicle: Klucel (hydroxypropylcellulose) (HPC)): 91 % of control
- T/C [4]: 69 % of control
- T/C [5]: 113 % of control

Structure (SMILES): C=CC(=O)NCNC(=O)C=C
- T/C (endpoint: median tumor weight (est.), dose: 12.5 mg/kg/injection, schedule: Q07DX005 (ip), vehicle: suspension in saline): 104 % of control
- T/C (endpoint: median tumor weight (est.), dose: 25.0 mg/kg/injection, schedule: Q07DX005 (ip), vehicle: suspension in saline): 85 % of control
- T/C (endpoint: median tumor weight (est.), dose: 50.0 mg/kg/injection, schedule: Q07DX005 (ip), vehicle: suspension in saline): 80 % of control
- T/C (endpoint: median tumor weight (est.), dose: 100.0 mg/kg/injection, schedule: Q07DX005 (ip), vehicle: suspension in saline): 43 % of control
- T/C (endpoint: median tumor weight (est.), dose: 200.0 mg/kg/injection, schedule: Q07DX005 (ip), vehicle: suspension in saline): 32 % of control
- T/C (endpoint: median tumor weight (est.), dose: 400.0 mg/kg/injection, schedule: Q07DX005 (ip), vehicle: suspension in saline): 9 % of control
- T/C (endpoint: median tumor weight change, dose: 62.5 mg/kg/injection, schedule: Q01DX001 (ip), vehicle: saline): 78 % of control
- T/C (endpoint: median tumor weight change, dose: 62.5 mg/kg/injection, schedule: Q01DX001 (ip), vehicle: suspension in saline): 90 % of control
- T/C (endpoint: median tumor weight change, dose: 72.0 mg/kg/injection, schedule: Q01DX001 (ip), vehicle: saline): 105 % of control
- T/C (endpoint: median tumor weight change, dose: 109.0 mg/kg/injection, schedule: Q01DX001 (ip), vehicle: saline): 150 % of control
- T/C [7]: 46 % of control
- T/C (endpoint: median tumor weight change, dose: 125.0 mg/kg/injection, schedule: Q01DX001 (ip), vehicle: suspension in saline): 42 % of control
- T/C (endpoint: median tumor weight change, dose: 165.0 mg/kg/injection, schedule: Q01DX001 (ip), vehicle: saline): 71 % of control
- T/C (endpoint: median tumor weight change, dose: 250.0 mg/kg/injection, schedule: Q01DX001 (ip), vehicle: saline): 50 % of control and 74 % of control
- T/C (endpoint: median tumor weight change, dose: 250.0 mg/kg/injection, schedule: Q01DX001 (ip), vehicle: suspension in saline): -28 % of control
- T/C (endpoint: median tumor weight change, dose: 379.0 mg/kg/injection, schedule: Q01DX001 (ip), vehicle: saline): 62 % of control

Structure (SMILES): C[Si](C)(C)O/C=C1/CCOC1=O
- T/C [7]: 96 % of control
- T/C (endpoint: median tumor weight change, dose: 500.0 mg/kg/injection, schedule: Q01DX001 (ip), vehicle: saline): 82 % of control
- T/C (endpoint: median tumor weight change, dose: 1000.0 mg/kg/injection, schedule: Q01DX001 (ip), vehicle: saline): 72 % of control

Structure (SMILES): O=C1N(Cl)C(=O)C(c2ccc(Cl)cc2)(c2ccc(Cl)cc2)N1Cl
- T/C [6]: 98 % of control
- T/C (endpoint: median tumor weight (est.), dose: 25.0 mg/kg/injection, schedule: Q07DX005 (ip), vehicle: saline with Tween-80): 119 % of control
- T/C (endpoint: median tumor weight (est.), dose: 50.0 mg/kg/injection, schedule: Q07DX005 (ip), vehicle: saline with Tween-80): 91 % of control
- T/C (endpoint: median tumor weight (est.), dose: 100.0 mg/kg/injection, schedule: Q07DX005 (ip), vehicle: saline with Tween-80): 104 % of control
- T/C (endpoint: median tumor weight (est.), dose: 200.0 mg/kg/injection, schedule: Q07DX005 (ip), vehicle: saline with Tween-80): 113 % of control
- T/C (endpoint: median tumor weight (est.), dose: 400.0 mg/kg/injection, schedule: Q07DX005 (ip), vehicle: saline with Tween-80): 43 % of control
- T/C (endpoint: median tumor weight change, dose: 12.5 mg/kg/injection, schedule: Q01DX001 (ip), vehicle: saline with Tween-80): 98 % of control
- T/C (endpoint: median tumor weight change, dose: 25.0 mg/kg/injection, schedule: Q01DX001 (ip), vehicle: saline with Tween-80): 68 % of control
- T/C (endpoint: median tumor weight change, dose: 50.0 mg/kg/injection, schedule: Q01DX001 (ip), vehicle: saline with Tween-80): 71 % of control
- T/C (endpoint: median tumor weight change, dose: 100.0 mg/kg/injection, schedule: Q01DX001 (ip), vehicle: saline with Tween-80): 45 % of control and 48 % of control
- T/C (endpoint: median tumor weight change, dose: 200.0 mg/kg/injection, schedule: Q01DX001 (ip), vehicle: saline with Tween-80): 44 % of control and 53 % of control
- T/C (endpoint: median tumor weight change, dose: 400.0 mg/kg/injection, schedule: Q01DX001 (ip), vehicle: saline with Tween-80): 24 % of control

Structure (SMILES): COc1ccc(C(=O)/C(Br)=C/C(=O)O)cc1
- T/C (endpoint: mean tumor weight, dose: 8.0 mg/kg/injection, schedule: Q07DX004 (ip), vehicle: saline): 69 % of control
- T/C (endpoint: mean tumor weight, dose: 12.5 mg/kg/injection, schedule: Q01DX009 (ip), vehicle: saline): 206 % of control and 122 % of control
- T/C (endpoint: mean tumor weight, dose: 16.0 mg/kg/injection, schedule: Q07DX004 (ip), vehicle: saline): 171 % of control
- T/C (endpoint: mean tumor weight, dose: 25.0 mg/kg/injection, schedule: Q01DX009 (ip), vehicle: saline): 241 % of control and 113 % of control
- T/C (endpoint: mean tumor weight, dose: 25.0 mg/kg/injection, schedule: Q07DX006 (ip), vehicle: saline): 190 % of control
- T/C (endpoint: mean tumor weight, dose: 32.0 mg/kg/injection, schedule: Q07DX004 (ip), vehicle: saline): 163 % of control
- T/C (endpoint: mean tumor weight, dose: 50.0 mg/kg/injection, schedule: Q01DX009 (ip), vehicle: saline): 156 % of control and 209 % of control
- T/C (endpoint: mean tumor weight, dose: 50.0 mg/kg/injection, schedule: Q07DX006 (ip), vehicle: saline): 86 % of control
- T/C (endpoint: mean tumor weight, dose: 64.0 mg/kg/injection, schedule: Q07DX004 (ip), vehicle: saline): 89 % of control
- T/C (endpoint: median tumor weight (est.), dose: 4.0 mg/kg/injection, schedule: Q01DX005 (ip), vehicle: saline): 159 % of control
- T/C (endpoint: median tumor weight (est.), dose: 8.0 mg/kg/injection, schedule: Q04DX005 (ip), vehicle: saline): 114 % of control
- T/C (endpoint: median tumor weight (est.), dose: 8.0 mg/kg/injection, schedule: Q07DX005 (ip), vehicle: saline): 120 % of control
- T/C (endpoint: median tumor weight (est.), dose: 16.0 mg/kg/injection, schedule: Q01DX005 (ip), vehicle: saline): 100 % of control
- T/C (endpoint: median tumor weight (est.), dose: 16.0 mg/kg/injection, schedule: Q07DX005 (ip), vehicle: saline): 120 % of control
- T/C (endpoint: median tumor weight (est.), dose: 32.0 mg/kg/injection, schedule: Q01DX005 (ip), vehicle: saline): 116 % of control
- T/C (endpoint: median tumor weight (est.), dose: 32.0 mg/kg/injection, schedule: Q07DX005 (ip), vehicle: saline): 50 % of control
- T/C (endpoint: median tumor weight (est.), dose: 64.0 mg/kg/injection, schedule: Q01DX005 (ip), vehicle: saline): 56 % of control
- T/C (endpoint: median tumor weight (est.), dose: 64.0 mg/kg/injection, schedule: Q04DX005 (ip), vehicle: saline): 219 % of control
- T/C (endpoint: median tumor weight (est.), dose: 64.0 mg/kg/injection, schedule: Q07DX005 (ip), vehicle: saline): 105 % of control
